{"source": "patent US7507748B2", "about": "“Substituted aryl-amine derivatives and methods of use” (Amgen Inc., priority 2004, dated 2009)", "tested_on": "Human Umbilical Vein Endothelial cells", "experiment": "VEGF-stimulated HUVEC proliferation assay", "format": "cell-based", "settings": "72 h, CyQuant, read-out: inhibited VEGF-stimulated HUVEC proliferation at a level", "method": "Human Umbilical Vein Endothelial cells are purchased from Clonetics, Inc., as cryopreserved cells harvested from a pool of donors. These cells, at passage 1, are thawed and expanded in EBM-2 complete medium, until passage 2 or 3. The cells are trypsinized, washed in DMEM+10% FBS+antibiotics, and spun at 1000 rpm for 10 min. Prior to centrifugation of the cells, a small amount is collected for a cell count. After centrifugation, the medium is discarded, and the cells are resuspended in the appropriate volume of DMEM+10% FBS+antibiotics to achieve a concentration of 3×10^5 cells/mL. Another cell count is performed to confirm the cell concentration. The cells are diluted to 3×10^4 cells/mL in DMEM+10% FBS+antibiotics, and 100 μL of cells are added to a 96-well plate. The cells are incubated at 37° C. for 22 h.\nPrior to the completion of the incubation period, compound dilutions are prepared. Five-point, five-fold serial dilutions are prepared in DMSO, at concentrations 400-fold greater than the final concentrations desired. 2.5 μL of each compound dilution are diluted further in a total of 1 mL DMEM+10% FBS+antibiotics (400× dilution). Medium containing 0.25% DMSO is also prepared for the 0 μM compound sample. At the 22-hour timepoint, the medium is removed from the cells, and 100 μL of each compound dilution is added. The cells are incubated at 37° C. for 2-3 h.\nDuring the compound pre-incubation period, the growth factors are diluted to the appropriate concentrations. Solutions of DMEM+10% FBS+antibiotics, containing either VEGF or bFGF at the following concentrations: 50, 10, 2, 0.4, 0.08, and 0 ng/mL are prepared. For the compound-treated cells, solutions of VEGF at 550 ng/mL or bFGF at 220 ng/mL for 50 ng/mL or 20 ng/mL final concentrations, respectively, are prepared since 10 μL of each will be added to the cells (110 μL final volume). At the appropriate time after adding the compounds, the growth factors are added. VEGF is added to one set of plates, while bFGF is added to another set of plates. For the growth factor control curves, the media on wells B4-G6 of plates 1 and 2 are replaced with media containing VEGF or bFGF at the varying concentrations (50-0 ng/mL). The cells are incubated at 37° C. for an additional 72 h.\nAt the completion of the 72 h incubation period, the medium is removed, and the cells are washed twice with PBS. After the second wash with PBS, the plates are tapped gently to remove excess PBS, and the cells are placed at −70° C. for at least 30 min. The cells are thawed and analyzed using the CyQuant fluorescent dye (Molecular Probes C-7026), following the manufacturer's recommendations. The plates are read on a Victor/Wallac 1420 workstation at 485 nm/530 nm (excitation/emission). Raw data are collected and analyzed using a 4-parameter fit equation in XLFit. IC50 values are then determined.", "data": [{"smiles": "O=C(Nc1ccc(N2CCC2)nc1)c1cccnc1Nc1ccc2ccncc2c1", "note": "[Example 45, N-(6-Azetidin-1-yl-pyridin-3-yl)-2-(isoquinolin-7-ylamino)-nicotinamide]", "values": [{"measurement": "IC50", "value": "< 1000", "unit": "nM"}]}, {"smiles": "CCC(C)(C)c1ccc(NC(=O)c2cccnc2Nc2ccc3ccncc3c2)cc1", "note": "[Example 46, N-(4-(1,1-Dimethyl-propyl)-phenyl)-2-(isoquinolin-7-ylamino)-nicotinamide]", "values": [{"measurement": "IC50", "value": "< 1000", "unit": "nM"}]}, {"smiles": "O=C(Nc1ccc(N2CCC2)cn1)c1cccnc1Nc1ccc2ccncc2c1", "note": "[Example 47, N-(5-Azetidin-1-yl-pyridin-2-yl)-2-(isoquinolin-7-ylamino)-nicotinamide]", "values": [{"measurement": "IC50", "value": "< 1000", "unit": "nM"}]}, {"smiles": "Cc1cc(NC(=O)c2cccnc2Nc2ccc3ccncc3c2)ccc1C(F)(F)C(F)(F)F", "note": "[Example 48, 2-(Isoquinolin-7-ylamino)-N-(3-methyl-4-pentafluoroethyl-phenyl)-nicotinamide]", "values": [{"measurement": "IC50", "value": "< 1000", "unit": "nM"}]}, {"smiles": "Cc1cc(NC(=O)c2cccnc2Nc2ccc3ccncc3c2)ccc1C(C)C", "note": "[Example 49, N-(4-Isopropyl-3-methyl-phenyl)-2-(isoquinolin-7-ylamino)-nicotinamide]", "values": [{"measurement": "IC50", "value": "< 1000", "unit": "nM"}]}, {"smiles": "CC(C)(C)c1cc(NC(=O)c2cccnc2Nc2ccc3ncncc3c2)on1", "note": "[Example 50, N-(3-tert-Butyl-isoxazol-5-yl)-2-(quinazolin-6-ylamino)-nicotinamide]", "values": [{"measurement": "IC50", "value": "< 1000", "unit": "nM"}]}, {"smiles": "CC1(C)CNCc2cc(NC(=O)c3cccnc3Nc3ccc4ncncc4c3)ccc21", "note": "[Example 51, N-(4,4-Dimethyl-1,2,3,4-tetrahydro-isoquinolin-7-yl)-2-(quinazolin-6-ylamino)-nicotinamide]", "values": [{"measurement": "IC50", "value": "< 1000", "unit": "nM"}]}, {"smiles": "CC1(C)CC(=O)Nc2cc(NC(=O)c3cccnc3Nc3ccc4ccncc4c3)ccc21", "note": "[Example 54, N-(4,4-Dimethyl-2-oxo-1,2,3,4-tetrahydro-quinolin-7-yl)-2-(isoquinolin-7-ylamino)-nicotinamide]", "values": [{"measurement": "IC50", "value": "< 1000", "unit": "nM"}]}, {"smiles": "O=C1CSc2ccc(NC(=O)c3cccnc3Nc3ccc4ccncc4c3)cc2N1", "note": "[Example 55, 2-(isoquinolin-7-ylamino)-N-(3-oxo-3,4-dihydro-2H-1,4-benzothiazin-6-yl)nicotinamide]", "values": [{"measurement": "IC50", "value": "< 1000", "unit": "nM"}]}, {"smiles": "CC(C)(C)c1ccc(NC(=O)c2cccnc2Nc2ccc3ncncc3c2)cc1", "note": "[Example 56, N-(4-tert-Butyl-phenyl)-2-(quinazolin-6-ylamino)-nicotinamide]", "values": [{"measurement": "IC50", "value": "< 1000", "unit": "nM"}]}, {"smiles": "CC1(C)CCNc2cc(NC(=O)c3cccnc3Nc3ccc4ncncc4c3)ccc21", "note": "[Example 57, N-(4,4-Dimethyl-1,2,3,4-tetrahydro-quinolin-7-yl)-2-(quinazolin-6-ylamino)-nicotinamide]", "values": [{"measurement": "IC50", "value": "< 1000", "unit": "nM"}]}, {"smiles": "CC1(C)CC(=O)Nc2nc(NC(=O)c3cccnc3Nc3ccc4ccncc4c3)ccc21", "note": "[Example 58, N-(5,5-dimethyl-7-oxo-5,6,7,8-tetrahydro-1,8-naphthyridin-2-yl)-2-(isoquinolin-7-ylamino)nicotinamide]", "values": [{"measurement": "IC50", "value": "< 1000", "unit": "nM"}]}, {"smiles": "CC1(C)CC(=O)Nc2nc(NC(=O)c3cccnc3Nc3ccc4ncncc4c3)ccc21", "note": "[Example 59, N-(5,5-dimethyl-7-oxo-5,6,7,8-tetrahydro-1,8-naphthyridin-2-yl)-2-(quinazolin-6-ylamino)nicotinamide]", "values": [{"measurement": "IC50", "value": "< 1000", "unit": "nM"}]}, {"smiles": "Cc1ccc(NC(=O)c2cccnc2Nc2ccc3ccncc3c2)cc1Cl", "note": "[Example 60, N-(3-chloro-4-methylphenyl)-2-(isoquinolin-7-ylamino)nicotinamide]", "values": [{"measurement": "IC50", "value": "< 1000", "unit": "nM"}]}, {"smiles": "O=C(Nc1ccc(OC(F)(F)F)cc1)c1cccnc1Nc1ccc2ccncc2c1", "note": "[Example 61, 2-(isoquinolin-7-ylamino)-N-(4-(trifluoromethoxy)phenyl)nicotinamide]", "values": [{"measurement": "IC50", "value": "< 1000", "unit": "nM"}]}, {"smiles": "Cc1cc(NC(=O)c2cccnc2Nc2ccc3ccncc3c2)ccc1N1CCCC1", "note": "[Example 62, 2-(isoquinolin-7-ylamino)-N-(3-methyl-4-(pyrrolidin-1-yl)phenyl)nicotinamide]", "values": [{"measurement": "IC50", "value": "< 1000", "unit": "nM"}]}, {"smiles": "Cc1cc(NC(=O)c2cccnc2Nc2ccc3nc(N)ncc3c2)ccc1C(C)C", "note": "[Example 63, 2-(2-aminoquinazolin-6-ylamino)-N-(3-methyl-4-(1-methylethyl)phenyl)nicotinamide]", "values": [{"measurement": "IC50", "value": "< 1000", "unit": "nM"}]}, {"smiles": "Cc1ccc(NC(=O)c2cccnc2Nc2ccc3nc(N)ncc3c2)cc1Cl", "note": "[Example 64, 2-(2-aminoquinazolin-6-ylamino)-N-(3-chloro-4-methylphenyl)nicotinamide]", "values": [{"measurement": "IC50", "value": "< 1000", "unit": "nM"}]}, {"smiles": "Nc1ncc2cc(Nc3ncccc3C(=O)Nc3ccc(Cl)cc3)ccc2n1", "note": "[Example 65, 2-(2-aminoquinazolin-6-ylamino)-N-(4-chlorophenyl)nicotinamide]", "values": [{"measurement": "IC50", "value": "< 1000", "unit": "nM"}]}, {"smiles": "CC(C)(C)c1ccc(NC(=O)c2cccnc2Nc2ccc3nc(N)nc(N)c3c2)cc1", "note": "[Example 66, 2-(2,4-diaminoquinazolin-6-ylamino)-N-(4-tert-butylphenyl)nicotinamide]", "values": [{"measurement": "IC50", "value": "< 1000", "unit": "nM"}]}, {"smiles": "CC(C)(C)c1ccc(NC(=O)c2cccnc2Nc2cccc3cnccc23)cc1", "note": "[Example 67, N-(4-tert-Butyl-phenyl)-2-(isoquinolin-5-ylamino)-nicotinamide]", "values": [{"measurement": "IC50", "value": "< 1000", "unit": "nM"}]}, {"smiles": "CN1CCCC1COc1cc(NC(=O)c2cccnc2Nc2cccc3cnccc23)cc(C(F)(F)F)c1", "note": "(stereo not drawn) [Example 68, 2-(Isoquinolin-5-ylamino)-N-[3-(1-methyl-pyrrolidin-2-ylmethoxy)-5-trifluoromethyl-phenyl]-nicotinamide]", "values": [{"measurement": "IC50", "value": "< 1000", "unit": "nM"}]}, {"smiles": "CC1(C)CNCc2cc(NC(=O)c3cccnc3Nc3cccc4cnccc34)ccc21", "note": "[Example 69, N-(4,4-Dimethyl-1,2,3,4-tetrahydro-isoquinolin-7-yl)-2-(isoquinolin-5-ylamino)-nicotinamide]", "values": [{"measurement": "IC50", "value": "< 1000", "unit": "nM"}]}, {"smiles": "CC1(C)CNc2cc(NC(=O)c3cccnc3Nc3cccc4cnccc34)ccc21", "note": "[Example 70, N-(3,3-Dimethyl-2,3-dihydro-1H-indol-6-yl)-2-(isoquinolin-5-ylamino)-nicotinamide]", "values": [{"measurement": "IC50", "value": "< 1000", "unit": "nM"}]}, {"smiles": "CC(C)(C)c1cc(NC(=O)c2cccnc2Nc2cccc3cnccc23)on1", "note": "[Example 71, N-(3-tert-butylisoxazol-5-yl)-2-(isoquinolin-5-ylamino)nicotinamide]", "values": [{"measurement": "IC50", "value": "< 1000", "unit": "nM"}]}, {"smiles": "CC(C)(C)c1ccc(NC(=O)c2cccnc2Nc2cccc3ncccc23)cc1", "note": "[Example 72, N-(4-(1,1-dimethylethyl)phenyl)-2-(5-quinolinylamino)-3-pyridinecarboxamide]", "values": [{"measurement": "IC50", "value": "< 1000", "unit": "nM"}]}, {"smiles": "CC(C)(C)OC(=O)NCC(=O)N1Cc2cc(NC(=O)c3cccnc3Nc3ccc4ccncc4c3)ccc2C(C)(C)C1", "note": "[Example 73, [2-(7-{[2-(Isoquinolin-7-ylamino)-pyridine-3-carbonyl]-amino}-4,4-dimethyl-3,4-dihydro-1H-isoquinolin-2-yl)-2-oxo-ethyl]-carbamic acid tert-butyl ester]", "values": [{"measurement": "IC50", "value": "< 1000", "unit": "nM"}]}, {"smiles": "CC1(C)CN(C(=O)CN)Cc2cc(NC(=O)c3cccnc3Nc3ccc4ccncc4c3)ccc21", "note": "[Example 75, N-[2-(2-Amino-acetyl)-4,4-dimethyl-1,2,3,4-tetrahydro-isoquinolin-7-yl]-2-(isoquinolin-7-ylamino)-nicotinamide]", "values": [{"measurement": "IC50", "value": "< 1000", "unit": "nM"}]}, {"smiles": "CC(C)(C)c1ccc(NC(=O)c2ccccc2Nc2ccc3ccncc3n2)cc1", "note": "[Example 76, N-(4-tert-Butyl-phenyl)-2-([1,7]naphthyridin-2-ylamino)-benzamide]", "values": [{"measurement": "IC50", "value": "< 1000", "unit": "nM"}]}, {"smiles": "CC1(C)CNCc2cc(NC(=O)c3ccccc3Nc3ccc4ccncc4n3)ccc21", "note": "[Example 77, N-(4,4-Dimethyl-1,2,3,4-tetrahydro-isoquinolin-7-yl)-2-([1,7]naphthyridin-2-ylamino)-benzamide]", "values": [{"measurement": "IC50", "value": "< 1000", "unit": "nM"}]}]}
